Source: patent US9695155B2, “Herbicidal substituted pyrimidinyloxy benzene compounds” (E. I. DU PONT DE NEMOURS AND COMPANY, priority 2013, dated 2017)

Key:
Heteranthera limosa = experiment: Test B flooded paddy test; assay type: in vivo; settings: Flood, 250 g ai/ha; 0 to 100 scale where 0 is no effect and 100 is complete control
Outline: (§1)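 Greenhouse flooded-pot test: compounds dosed into 3 cm standing water over 2-leaf plants, flood held constant. Rated visually after 13–15 days on 0–100 (complete control = 100); a dash marks no test result.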

wheat [1] = experiment: Test A preemergence; assay type: in vivo, Triticum aestivum
Outline: (§2)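 Compounds in non-phytotoxic solvent with surfactant applied as soil spray preemergence, or postemergence to plants 2-10 cm at one- to two-leaf stage, in loam/sand. After approximately 10 days in greenhouse, injury rated visually versus untreated controls, 0 (no effect) to 100 (complete control).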

giant foxtail [2] = experiment: Test A preemergence; assay type: in vivo, Setaria faberii
Outline: as §2

velvetleaf [3] = experiment: Test A preemergence; assay type: in vivo, Abutilon theophrasti
Outline: as §2

barnyardgrass [4] = experiment: Test A preemergence; assay type: in vivo, Echinochloa crus-galli
Outline: as §2

rice [5] = experiment: Test B flooded paddy test; assay type: in vivo, Oryza sativa; settings: Flood, 250 g ai/ha; 0 to 100 scale where 0 is no effect and 100 is complete control
Outline: as §1

sedge, umbrella [6] = experiment: Test B flooded paddy test; assay type: in vivo, Cyperus difformis; settings: Flood, 250 g ai/ha; 0 to 100 scale where 0 is no effect and 100 is complete control
Outline: as §1

barnyardgrass [7] = experiment: Test B flooded paddy test; assay type: in vivo, Echinochloa crus-galli; settings: Flood, 250 g ai/ha; 0 to 100 scale where 0 is no effect and 100 is complete control
Outline: as §1

rice [8] = experiment: Test C flooded paddy test; assay type: in vivo, Oryza sativa; settings: Flood, scale 0 to 100 (0 no effect, 100 complete control), 13 to 15 days
Outline: (§3)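 Pots were flooded to 3 cm above the soil surface at treatment, compound applied directly to the paddy water, and that depth held throughout. Plants were kept in a greenhouse for 13 to 15 days, then visually rated against untreated controls.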

ducksalad = experiment: Test C flooded paddy test; assay type: in vivo, Heteranthera limosa; settings: Flood, scale 0 to 100 (0 no effect, 100 complete control), 13 to 15 days
Outline: as §3

pigweed [9] = experiment: Test A postemergence; assay type: in vivo, Amaranthus retroflexus; settings: 0 to 100 scale where 0 is no effect and 100 is complete control
Outline: as §2

sedge, umbrella [10] = experiment: Test C flooded paddy test; assay type: in vivo, Cyperus difformis; settings: Flood, scale 0 to 100 (0 no effect, 100 complete control), 13 to 15 days
Text: At time of treatment, test pots were flooded to 3 cm above the soil surface, treated by application of test compounds directly to the paddy water, and then maintained at that water depth for the duration of the test. Treated plants and controls were maintained in a greenhouse for 13 to 15 days, after which time all species were compared to controls and visually evaluated. […] A dash (-) response means no test result.

barnyardgrass [11] = experiment: Test C flooded paddy test; assay type: in vivo, Echinochloa crus-galli; settings: Flood, scale 0 to 100 (0 no effect, 100 complete control), 13 to 15 days
Outline: as §3

giant foxtail [12] = experiment: Test A postemergence; assay type: in vivo, Setaria faberii; settings: 0 to 100 scale where 0 is no effect and 100 is complete control
Outline: as §2

large (Lg) crabgrass [13] = experiment: Test A preemergence; assay type: in vivo, Digitaria sanguinalis
Outline: as §2

large (Lg) crabgrass [14] = experiment: Test A postemergence; assay type: in vivo, Digitaria sanguinalis
Outline: as §2

barnyardgrass [15] = experiment: Test A postemergence; assay type: in vivo, Echinochloa crus-galli
Outline: as §2

velvetleaf [16] = experiment: Test A postemergence; assay type: in vivo, Abutilon theophrasti; settings: 0 to 100 scale where 0 is no effect and 100 is complete control
Outline: as §2

morningglory [17] = experiment: Test A postemergence; assay type: in vivo, Ipomoea spp.; settings: 0 to 100 scale where 0 is no effect and 100 is complete control
Outline: as §2

morningglory [18] = experiment: Test A preemergence; assay type: in vivo, Ipomoea spp.
Outline: as §2

wheat [19] = experiment: Test A postemergence; assay type: in vivo, Triticum aestivum; settings: 0 to 100 scale where 0 is no effect and 100 is complete control
Outline: as §2

corn [20] = experiment: Test A preemergence; assay type: in vivo, Zea mays
Outline: as §2

corn [21] = experiment: Test A postemergence; assay type: in vivo, Zea mays
Outline: as §2

pigweed [22] = experiment: Test A preemergence; assay type: in vivo, Amaranthus retroflexus
Outline: as §2

[23] = 125 g ai/ha, 0 to 100 scale where 0 is no effect and 100 is complete control
[24] = 500 g ai/ha, 0 to 100 scale, 0 no effect, 100 complete control, approx. 10 days
[25] = 500 g ai/ha, 0 to 100 scale, 0 no effect, 100 complete control

FC(F)c1cnn(-c2ccccc2Oc2ncc(Br)cn2)c1 [Compound 81]
Plant response rating, Ducksalad (Heteranthera limosa): 90 | Plant response rating, Wheat (wheat [1]; [23]): 10 | Wheat plant response rating (wheat [1]; [24]): 10 | Plant response rating, Foxtail, Giant (giant foxtail [2]; [23]): 80 | Foxtail, Giant plant response rating (giant foxtail [2]; [24]): 100 | Plant response rating, Velvetleaf (velvetleaf [3]; [23]): 50 | Velvetleaf plant response rating (velvetleaf [3]; [24]): 100 | Plant response rating, Barnyardgrass (barnyardgrass [4]; [23]): 0 | Barnyardgrass plant response rating (barnyardgrass [4]; [24]): 70 | Plant response rating, Rice (rice [5]): 0 | Plant response rating, Sedge, Umbrella (sedge, umbrella [6]): 80 | Plant response rating, Barnyardgrass (barnyardgrass [7]): 0 | Plant response rating, Rice (rice [8]; 31 g ai/ha): 0 | Plant response rating, Rice (rice [8]; 62 g ai/ha): 0 | Plant response rating, Rice (rice [8]; 125 g ai/ha): 0 | Plant response rating, Rice (rice [8]; 250 g ai/ha): 0 | Plant response rating, Ducksalad (ducksalad; 31 g ai/ha): 30 | Plant response rating, Ducksalad (ducksalad; 62 g ai/ha): 40 | Plant response rating, Ducksalad (ducksalad; 125 g ai/ha): 60 | Plant response rating, Ducksalad (ducksalad; 250 g ai/ha): 90 | Plant response rating, Pigweed (pigweed [9]; 125 g ai/ha): 100 | Plant response rating, Pigweed (pigweed [9]; 500 g ai/ha): 100 | Plant response rating, Sedge, Umbrella (sedge, umbrella [10]; 31 g ai/ha): 0 | Plant response rating, Sedge, Umbrella (sedge, umbrella [10]; 62 g ai/ha): 50 | Plant response rating, Sedge, Umbrella (sedge, umbrella [10]; 125 g ai/ha): 70 | Plant response rating, Sedge, Umbrella (sedge, umbrella [10]; 250 g ai/ha): 90 | Plant response rating, Barnyardgrass (barnyardgrass [11]; 31 g ai/ha): 0 | Plant response rating, Barnyardgrass (barnyardgrass [11]; 62 g ai/ha): 0 | Plant response rating, Barnyardgrass (barnyardgrass [11]; 125 g ai/ha): 0 | Plant response rating, Barnyardgrass (barnyardgrass [11]; 250 g ai/ha): 0 | Plant response rating, Foxtail, Giant (giant foxtail [12]; 125 g ai/ha): 50 | Plant response rating, Foxtail, Giant (giant foxtail [12]; 500 g ai/ha): 90 | Plant response rating, Crabgrass, Large (large (Lg) crabgrass [13]; [23]): 90 | Crabgrass, Large plant response rating (large (Lg) crabgrass [13]; [24]): 100 | Plant response rating, Crabgrass, Large (large (Lg) crabgrass [14]; [23]): 40 | Plant response rating, Crabgrass, Large (large (Lg) crabgrass [14]; [25]): 90 | Plant response rating, Barnyardgrass (barnyardgrass [15]; [23]): 50 | Plant response rating, Barnyardgrass (barnyardgrass [15]; [25]): 100 | Plant response rating, Velvetleaf (velvetleaf [16]; 125 g ai/ha): 100 | Plant response rating, Velvetleaf (velvetleaf [16]; 500 g ai/ha): 100 | Plant response rating, Morningglory (morningglory [17]; 125 g ai/ha): 50 | Plant response rating, Morningglory (morningglory [17]; 500 g ai/ha): 100 | Plant response rating, Morningglory (morningglory [18]; [23]): 0 | Morningglory plant response rating (morningglory [18]; [24]): 60 | Plant response rating, Wheat (wheat [19]; 125 g ai/ha): 10 | Plant response rating, Wheat (wheat [19]; 500 g ai/ha): 60 | Plant response rating, Corn (corn [20]; [23]): 0 | Corn plant response rating (corn [20]; [24]): 10 | Plant response rating, Corn (corn [21]; [23]): 50 | Plant response rating, Corn (corn [21]; [25]): 30 | Plant response rating, Pigweed (pigweed [22]; [23]): 0 | Pigweed plant response rating (pigweed [22]; [24]): 0
